Reference: US11331299B2, “Medicinal use of serrulatane diterpenes” (The University of Sydney, priority 2016, dated 2022)
Where two headings read alike, the source gives them in different places.

Columns and labels:
[1] = test system: Wi38; test: OncoPanel normal cell proliferation assay (3-day); format: cell-based; details: Homo sapiens, WI-38, 72 h, Wi38, lung fibroblast, 3-day incubation
[2] = molecular target: dopamine D1 (h) (Homo sapiens, UniProt P21728); test: biochemical; format: binding
dopamine D1 (h), sequence (P21728 whole entry): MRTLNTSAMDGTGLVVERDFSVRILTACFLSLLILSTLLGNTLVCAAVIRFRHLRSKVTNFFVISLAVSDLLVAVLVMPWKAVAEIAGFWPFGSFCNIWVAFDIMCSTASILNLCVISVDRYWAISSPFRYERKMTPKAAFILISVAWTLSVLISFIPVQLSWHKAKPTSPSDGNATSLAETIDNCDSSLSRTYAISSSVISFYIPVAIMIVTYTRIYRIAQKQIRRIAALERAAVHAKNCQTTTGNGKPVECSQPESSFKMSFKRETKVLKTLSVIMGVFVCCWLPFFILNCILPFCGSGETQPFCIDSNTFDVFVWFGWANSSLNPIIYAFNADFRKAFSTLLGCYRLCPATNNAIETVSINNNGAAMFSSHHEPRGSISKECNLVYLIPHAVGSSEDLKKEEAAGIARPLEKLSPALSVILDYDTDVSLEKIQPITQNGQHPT

[3] = molecular target: receptors (Bioprint panel) (Homo sapiens, UniProt P14867); test: biochemical; format: binding; details: GABAA1 (h) (alpha 1, beta 2, gamma 2) (agonist radioligand); 10 μM; read-out: % Inhibition of Control Specific Binding
[4] = molecular target: receptors (Bioprint panel) (Homo sapiens, UniProt P08913); test: biochemical; format: binding; details: […] alpha 2A (h) (antagonist radioligand); 10 μM; read-out: % Inhibition of Control Specific Binding
receptors (Bioprint panel) (Homo sapiens, UniProt P08913), sequence (P08913 whole entry): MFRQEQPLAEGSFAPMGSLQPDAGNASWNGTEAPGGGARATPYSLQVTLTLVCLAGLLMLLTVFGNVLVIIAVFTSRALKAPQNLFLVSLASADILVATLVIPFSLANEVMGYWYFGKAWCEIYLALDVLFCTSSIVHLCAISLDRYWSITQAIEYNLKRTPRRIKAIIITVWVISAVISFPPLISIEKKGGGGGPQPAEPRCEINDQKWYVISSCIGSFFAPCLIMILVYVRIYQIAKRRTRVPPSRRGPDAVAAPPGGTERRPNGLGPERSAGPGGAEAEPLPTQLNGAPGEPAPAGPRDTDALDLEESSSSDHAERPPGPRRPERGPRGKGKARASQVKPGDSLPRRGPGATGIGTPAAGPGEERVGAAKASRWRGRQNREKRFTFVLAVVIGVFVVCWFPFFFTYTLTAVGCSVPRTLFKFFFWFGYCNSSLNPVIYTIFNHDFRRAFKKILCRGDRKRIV

[5] = molecular target: receptors (Bioprint panel) (Homo sapiens, UniProt P18089); test: biochemical; format: binding; details: […] alpha 2B (h) (antagonist radioligand); 10 μM; read-out: % Inhibition of Control Specific Binding
[6] = test system: receptors (Bioprint panel); test: biochemical; format: binding; details: 10 μM
[7] = molecular target: receptors (Bioprint panel) (Homo sapiens, UniProt P35372); test: biochemical; format: binding; details: OPIOD & OPIOID-LIKE mu (MOP) (h) (agonist radioligand); 10 μM; read-out: % Inhibition of Control Specific Binding
receptors (Bioprint panel) (Homo sapiens, UniProt P35372), sequence (P35372 whole entry): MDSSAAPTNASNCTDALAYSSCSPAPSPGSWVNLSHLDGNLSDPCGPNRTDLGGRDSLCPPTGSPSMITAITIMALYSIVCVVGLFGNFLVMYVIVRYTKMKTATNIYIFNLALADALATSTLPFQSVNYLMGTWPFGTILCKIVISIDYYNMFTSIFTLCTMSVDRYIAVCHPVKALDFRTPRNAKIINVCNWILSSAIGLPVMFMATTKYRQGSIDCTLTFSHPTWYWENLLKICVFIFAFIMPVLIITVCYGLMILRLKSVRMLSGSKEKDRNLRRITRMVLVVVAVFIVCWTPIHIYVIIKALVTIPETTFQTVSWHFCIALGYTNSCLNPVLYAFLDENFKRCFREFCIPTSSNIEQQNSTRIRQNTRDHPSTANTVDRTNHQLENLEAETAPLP

[8] = molecular target: receptors (Bioprint panel) (Homo sapiens, UniProt P35368); test: biochemical; format: binding; details: […] alpha 1B (h) (antagonist radioligand); 10 μM; read-out: % Inhibition of Control Specific Binding
receptors (Bioprint panel) (Homo sapiens, UniProt P35368), sequence (P35368 whole entry): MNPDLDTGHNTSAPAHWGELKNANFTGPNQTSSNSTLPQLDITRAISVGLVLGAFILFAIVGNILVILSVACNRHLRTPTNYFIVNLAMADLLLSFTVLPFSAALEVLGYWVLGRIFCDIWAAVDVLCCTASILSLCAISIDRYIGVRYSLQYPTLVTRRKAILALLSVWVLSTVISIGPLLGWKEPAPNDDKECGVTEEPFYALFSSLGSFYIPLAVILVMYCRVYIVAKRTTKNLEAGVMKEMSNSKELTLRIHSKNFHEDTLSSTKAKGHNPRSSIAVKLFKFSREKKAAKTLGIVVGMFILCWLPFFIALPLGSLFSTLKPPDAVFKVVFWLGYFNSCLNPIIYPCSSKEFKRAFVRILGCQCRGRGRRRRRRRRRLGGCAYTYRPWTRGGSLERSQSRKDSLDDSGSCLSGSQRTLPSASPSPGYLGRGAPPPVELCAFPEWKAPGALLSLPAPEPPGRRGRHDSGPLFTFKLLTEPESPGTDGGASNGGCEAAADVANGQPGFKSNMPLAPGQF

[9] = molecular target: receptors (Bioprint panel) (Homo sapiens, UniProt P34998); test: biochemical; format: binding; details: COR[…] FACTOR CRF1 (h) (agonist radioligand); 10 μM; read-out: % Inhibition of Control Specific Binding
[10] = molecular target: receptors (Bioprint panel) (Homo sapiens, UniProt Q9GZV3); test: biochemical; format: binding; details: choline transporter (CHT1) (h) (antagonist radioligand); 10 μM; read-out: % Inhibition of Control Specific Binding
receptors (Bioprint panel) (Homo sapiens, UniProt Q9GZV3), sequence (Q9GZV3 whole entry): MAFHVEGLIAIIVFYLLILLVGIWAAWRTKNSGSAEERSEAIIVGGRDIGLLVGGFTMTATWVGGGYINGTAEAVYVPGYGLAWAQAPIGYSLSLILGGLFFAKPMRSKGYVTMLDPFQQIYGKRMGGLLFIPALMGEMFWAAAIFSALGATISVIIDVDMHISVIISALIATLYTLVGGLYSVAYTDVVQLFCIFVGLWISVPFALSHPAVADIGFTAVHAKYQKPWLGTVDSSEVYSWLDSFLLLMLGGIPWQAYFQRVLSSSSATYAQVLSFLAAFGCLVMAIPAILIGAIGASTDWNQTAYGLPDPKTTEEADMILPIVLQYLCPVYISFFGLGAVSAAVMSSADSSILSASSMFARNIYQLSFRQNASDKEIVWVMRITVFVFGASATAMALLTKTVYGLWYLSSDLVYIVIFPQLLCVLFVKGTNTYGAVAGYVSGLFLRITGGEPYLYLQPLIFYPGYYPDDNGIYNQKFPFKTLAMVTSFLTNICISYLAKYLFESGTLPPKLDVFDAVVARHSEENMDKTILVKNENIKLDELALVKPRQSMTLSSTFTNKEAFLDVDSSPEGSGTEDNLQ

[11] = molecular target: receptors (Bioprint panel) (Rattus norvegicus, UniProt P28565); test: biochemical; format: binding; details: read-out: % Inhibition of Control Specific Binding
[12] = molecular target: receptors (Bioprint panel) (Homo sapiens, UniProt P04150); test: biochemical; format: binding; details: read-out: % Inhibition of Control Specific Binding
[13] = molecular target: receptors (Bioprint panel) (Homo sapiens, UniProt P37288); test: biochemical; format: binding; details: VASOPRESSIN V1a (h) (agonist radioligand); 10 μM; read-out: % Inhibition of Control Specific Binding
receptors (Bioprint panel) (Homo sapiens, UniProt P37288), sequence (P37288 whole entry): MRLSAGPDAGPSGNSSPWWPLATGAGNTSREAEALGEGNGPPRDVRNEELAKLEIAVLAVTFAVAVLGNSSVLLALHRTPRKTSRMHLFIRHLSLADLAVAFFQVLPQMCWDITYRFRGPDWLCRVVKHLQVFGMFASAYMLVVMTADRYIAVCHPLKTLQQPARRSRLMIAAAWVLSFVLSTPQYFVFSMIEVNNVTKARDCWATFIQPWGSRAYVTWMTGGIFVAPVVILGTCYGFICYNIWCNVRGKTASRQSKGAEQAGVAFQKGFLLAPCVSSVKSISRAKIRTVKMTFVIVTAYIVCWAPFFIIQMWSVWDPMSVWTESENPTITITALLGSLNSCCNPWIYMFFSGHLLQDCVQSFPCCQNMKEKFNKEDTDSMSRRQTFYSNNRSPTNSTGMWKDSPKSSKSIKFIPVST

[14] = molecular target: receptors (Bioprint panel) (Homo sapiens, UniProt P43088); test: biochemical; format: binding; details: […] (h) (agonist radioligand); 10 μM; read-out: % Inhibition of Control Specific Binding
receptors (Bioprint panel) (Homo sapiens, UniProt P43088), sequence (P43088 whole entry): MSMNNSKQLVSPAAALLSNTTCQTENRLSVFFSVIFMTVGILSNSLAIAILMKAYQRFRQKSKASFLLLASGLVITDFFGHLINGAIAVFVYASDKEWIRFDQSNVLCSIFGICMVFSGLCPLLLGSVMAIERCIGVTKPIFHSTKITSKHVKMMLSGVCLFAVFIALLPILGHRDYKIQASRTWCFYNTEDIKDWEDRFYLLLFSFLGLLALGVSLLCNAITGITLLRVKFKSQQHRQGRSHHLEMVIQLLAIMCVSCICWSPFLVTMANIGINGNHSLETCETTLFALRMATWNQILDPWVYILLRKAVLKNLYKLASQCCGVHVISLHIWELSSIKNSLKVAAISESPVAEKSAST

[15] = molecular target: receptors (Bioprint panel) (Homo sapiens, UniProt P24530); test: biochemical; format: binding; details: […] (h) (agonist radioligand); 10 μM; read-out: % Inhibition of Control Specific Binding
receptors (Bioprint panel) (Homo sapiens, UniProt P24530), sequence (P24530 27-442): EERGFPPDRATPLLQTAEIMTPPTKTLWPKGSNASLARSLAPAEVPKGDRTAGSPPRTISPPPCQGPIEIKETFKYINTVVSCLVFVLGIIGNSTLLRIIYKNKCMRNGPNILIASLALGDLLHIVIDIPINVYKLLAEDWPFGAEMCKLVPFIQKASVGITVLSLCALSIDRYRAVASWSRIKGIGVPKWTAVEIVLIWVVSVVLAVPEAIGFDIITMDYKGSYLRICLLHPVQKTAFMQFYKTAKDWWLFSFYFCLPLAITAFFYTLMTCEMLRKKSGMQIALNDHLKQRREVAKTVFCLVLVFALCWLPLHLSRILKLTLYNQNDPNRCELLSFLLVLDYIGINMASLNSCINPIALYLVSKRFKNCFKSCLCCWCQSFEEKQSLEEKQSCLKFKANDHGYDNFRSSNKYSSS

[16] = molecular target: T1, receptors (Bioprint panel) (Homo sapiens, UniProt P30556); test: biochemical; format: binding; details: A[…] AT1 (h) (antagonist radioligand); 10 μM; read-out: % Inhibition of Control Specific Binding
T1 construct: other: ANGIOTENSIN II AT1 (h) (antagonist radioligand); 10 μM

[17] = molecular target: receptors (Bioprint panel) (Homo sapiens, UniProt P41143); test: biochemical; format: binding; details: OPIOD & OPIOID-LIKE delta (DOP) (h) (agonist radioligand); 10 μM; read-out: % Inhibition of Control Specific Binding
[18] = molecular target: receptors (Bioprint panel) (Homo sapiens, UniProt P21554); test: biochemical; format: binding; details: CANNABINOID CB1 (h) (agonist radioligand); 10 μM; read-out: % Inhibition of Control Specific Binding
receptors (Bioprint panel) (Homo sapiens, UniProt P21554), sequence (P21554 whole entry): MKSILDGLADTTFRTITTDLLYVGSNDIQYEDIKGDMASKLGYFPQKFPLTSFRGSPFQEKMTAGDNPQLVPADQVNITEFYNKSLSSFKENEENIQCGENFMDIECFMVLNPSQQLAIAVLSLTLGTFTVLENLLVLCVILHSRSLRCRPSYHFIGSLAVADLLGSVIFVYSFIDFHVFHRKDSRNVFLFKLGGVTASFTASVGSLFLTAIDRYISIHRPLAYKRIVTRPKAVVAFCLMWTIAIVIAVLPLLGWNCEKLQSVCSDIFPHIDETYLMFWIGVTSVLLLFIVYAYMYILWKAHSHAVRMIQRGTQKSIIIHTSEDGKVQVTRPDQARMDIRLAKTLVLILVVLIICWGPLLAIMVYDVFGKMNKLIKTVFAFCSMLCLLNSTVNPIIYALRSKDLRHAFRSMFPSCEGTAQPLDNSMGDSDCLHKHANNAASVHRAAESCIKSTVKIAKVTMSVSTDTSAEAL

[19] = molecular target: receptors (Bioprint panel) (Homo sapiens, UniProt P21452); test: biochemical; format: binding; details: NEUROKININ NK2 (h) (agonist radioligand); 10 μM; read-out: % Inhibition of Control Specific Binding
receptors (Bioprint panel) (Homo sapiens, UniProt P21452), sequence (P21452 whole entry): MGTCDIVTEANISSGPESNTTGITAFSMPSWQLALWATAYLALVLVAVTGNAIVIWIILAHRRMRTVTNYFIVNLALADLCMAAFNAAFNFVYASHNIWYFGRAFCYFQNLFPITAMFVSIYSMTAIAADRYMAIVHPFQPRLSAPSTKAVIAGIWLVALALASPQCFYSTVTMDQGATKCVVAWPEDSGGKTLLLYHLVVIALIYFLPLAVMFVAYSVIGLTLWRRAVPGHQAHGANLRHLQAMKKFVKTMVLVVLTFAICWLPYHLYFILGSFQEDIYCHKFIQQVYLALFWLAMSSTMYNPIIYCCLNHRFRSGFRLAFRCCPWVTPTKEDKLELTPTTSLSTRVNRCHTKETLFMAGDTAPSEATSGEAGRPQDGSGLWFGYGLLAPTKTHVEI

[20] = molecular target: receptors (Bioprint panel) (Homo sapiens, UniProt P25929); test: biochemical; format: binding; details: NE[…] Y1 (h) (agonist radioligand); 10 μM; read-out: % Inhibition of Control Specific Binding
[21] = molecular target: receptors (Bioprint panel) (Homo sapiens, UniProt P32239); test: biochemical; format: binding; details: CHOLECYSTOKININ CCK2 (CCKB) (h) (agonist radioligand); 10 μM; read-out: % Inhibition of Control Specific Binding
[22] = molecular target: receptors (Bioprint panel) (Homo sapiens, UniProt Q15722); test: biochemical; format: binding; details: read-out: % Inhibition of Control Specific Binding
[23] = molecular target: receptors (Bioprint panel) (Rattus norvegicus, UniProt P35439); test: biochemical; format: binding; details: read-out: % Inhibition of Control Specific Binding
[24] = molecular target: dopamine D3 (h) (Homo sapiens, UniProt P35462); test: biochemical; format: binding
dopamine D3 (h), sequence (P35462 whole entry): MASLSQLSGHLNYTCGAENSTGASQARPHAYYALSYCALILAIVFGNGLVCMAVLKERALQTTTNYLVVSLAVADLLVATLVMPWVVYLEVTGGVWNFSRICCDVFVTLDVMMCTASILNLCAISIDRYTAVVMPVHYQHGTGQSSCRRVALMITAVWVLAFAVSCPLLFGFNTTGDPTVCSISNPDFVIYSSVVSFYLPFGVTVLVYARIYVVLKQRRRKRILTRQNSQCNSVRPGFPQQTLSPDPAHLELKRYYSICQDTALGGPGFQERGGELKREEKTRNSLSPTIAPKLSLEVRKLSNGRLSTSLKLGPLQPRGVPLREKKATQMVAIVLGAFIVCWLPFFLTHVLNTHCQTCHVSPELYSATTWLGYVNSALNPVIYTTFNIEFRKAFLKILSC

[25] = molecular target: MLL3(h) complex (Homo sapiens, UniProt Q8NEZ4); details: read-out: Reference: (IC50 not given); cited from earlier work
[26] = read-out: % inhibition of control specific binding

## CC(C)=CCC[C@H](CO)[C@@H]1CC[C@@H](C)c2c1cc(C)c(O)c2O [Compound 1, 7,8,18-trihydroxyserrulat-14-ene]
[1]; read-out: Cell Count EC50
  EC50: 5.45 µM
[1]; read-out: Cell Count GI50
  GI50: 5.92 µM
[1]; read-out: Cell Count IC50
  IC50: 10.4 µM
[2]; DOPAMINE D1 (h) (antagonist radioligand), read-out: % Inhibition of Control Specific Binding
  inhibition at 10 µM: 67%
[2]; [26]
  inhibition at 10 µM: 67%
[3]
  inhibition at 10 µM: -36%
[4]
  inhibition at 10 µM: 35%
[5]
  inhibition at 10 µM: 7%
[6]
  % Inhibition of Control Specific Binding: 11%
[6]; CYTOKINES TNF-alpha (h) (agonist radioligand)
  % Inhibition of Control Specific Binding: −23%
[6]; Ca2+ channel (L, dihydropyridine site) (antagonist radioligand)
  % Inhibition of Control Specific Binding: 55%
[6]; Ca2+ channel (L, diltiazem site) (benzothiazepines) (antagonist radioligand)
  % Inhibition of Control Specific Binding: −30%
[6]; Ca2+ channel (L, verapamil site) (phenylalkylamine) (antagonist radioligand)
  % Inhibition of Control Specific Binding: −4%
[6]; Cl- channel (GABA-gated) (antagonist radioligand)
  % Inhibition of Control Specific Binding: 42%
[6]; GABA CHANNELS BZD (central) (agonist radioligand)
  % Inhibition of Control Specific Binding: −31%
[6]; GABA transporter (antagonist radioligand)
  % Inhibition of Control Specific Binding: −10%
[6]; GLUTAMATE CHANNELS AMPA (agonist radioligand)
  % Inhibition of Control Specific Binding: 4%
[6]; GLUTAMATE CHANNELS NMDA (antagonist radioligand)
  % Inhibition of Control Specific Binding: 9%
[6]; GLUTAMATE CHANNELS PCP (antagonist radioligand)
  % Inhibition of Control Specific Binding: −11%
[6]; GLUTAMATE CHANNELS kainate (agonist radioligand)
  % Inhibition of Control Specific Binding: 15%
[6]; Na+ channel (site 2) (antagonist radioligand)
  % Inhibition of Control Specific Binding: 48%
[6]; SKCa channel (antagonist radioligand)
  % Inhibition of Control Specific Binding: 14%
[6]; Thyroid Hormone
  % Inhibition of Control Specific Binding: 9%
[7]
  inhibition at 10 µM: 43%
[8]
  inhibition at 10 µM: 41%
[9]
  inhibition at 10 µM: 34%
[10]
  inhibition at 10 µM: -41%
[11]
  inhibition at 10 µM: 18%
[12]
  inhibition at 10 µM: 47%
[13]
  inhibition at 10 µM: 12%
[14]
  inhibition at 10 µM: 54%
[15]
  inhibition at 10 µM: 40%
[16]
  inhibition at 10 µM: 60%
[17]
  inhibition at 10 µM: 62%
[18]
  inhibition at 10 µM: 46%
[19]
  inhibition at 10 µM: 52%
[20]
  inhibition at 10 µM: 29%
[21]
  inhibition at 10 µM: 6%
[22]
  inhibition at 10 µM: 27%
[23]
  inhibition at 10 µM: 4%
[24]; DOPAMINE D3 (h) (antagonist radioligand), read-out: % Inhibition of Control Specific Binding
  inhibition at 10 µM: 85%
[24]; [26]
  inhibition at 10 µM: 85%

## Nc1ncnc2c1ncn2[C@@H]1O[C@H](CSCC[C@H](N)C(=O)O)[C@@H](O)[C@H]1O [SAH]
[25]
  IC50: 0.97 µM
